pEC50, pIC50: −log10 of the molar value. Calls of active or inactive are those of the source. The calls are words filed in the database; no cut-off is given here.
What was measured:
[1] = tested on: HT-1080; experiment: Inhibition of erastin-induced ferroptosis in human HT-1080 cells assessed as cell viability incubated for 48 hrs by MTT assay; format: functional, cell-based; settings: HT-1080, 48 h
[2] = tested on: HT-1080; experiment: Inhibition of staurosporine-induced apoptotic cell death in human HT-1080 cells assessed as cell viability at 10 uM; format: functional, cell-based
[3] = tested on: BXPC-3; experiment: Inhibition of erastin-induced ferroptosis in human BXPC-3 cells assessed as cell viability incubated for 48 hrs by MTT assay; format: functional, cell-based; settings: BXPC-3, 48 h
[4] = tested on: MDA-MB-231; experiment: Inhibition of erastin-induced ferroptosis in human MDA-MB-231 cells assessed as cell viability incubated for 48 hrs by MTT assay; format: functional, cell-based; settings: MDA-MB-231, 48 h
[5] = target: T1, 5-hydroxytryptamine receptor 2C (Homo sapiens) (UniProt P28335); experiment: Antagonist activity at HTR2C (unknown origin) by FLIPR assay
T1 sequence (whole entry): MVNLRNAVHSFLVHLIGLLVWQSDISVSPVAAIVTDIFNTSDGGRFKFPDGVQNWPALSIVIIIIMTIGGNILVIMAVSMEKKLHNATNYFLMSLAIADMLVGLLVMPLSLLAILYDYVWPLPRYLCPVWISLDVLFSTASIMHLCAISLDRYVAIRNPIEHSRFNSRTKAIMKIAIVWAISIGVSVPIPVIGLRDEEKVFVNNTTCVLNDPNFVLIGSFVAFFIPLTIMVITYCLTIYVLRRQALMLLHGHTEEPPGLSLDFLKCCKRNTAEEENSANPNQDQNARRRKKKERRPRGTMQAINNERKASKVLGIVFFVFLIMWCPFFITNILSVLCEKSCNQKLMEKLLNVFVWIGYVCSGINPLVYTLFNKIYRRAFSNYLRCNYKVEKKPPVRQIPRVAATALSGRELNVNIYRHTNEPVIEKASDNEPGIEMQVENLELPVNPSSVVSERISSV

[6] = target: Muscarinic acetylcholine receptor M3 (Homo sapiens) (UniProt P20309); experiment: Antagonist activity at CHRM3 (unknown origin) by FLIPR assay
[7] = target: Histamine H1 receptor (Homo sapiens) (UniProt P35367); experiment: Antagonist activity at H1 (unknown origin) by FLIPR assay
[8] = tested on: HT-1080; experiment: Reduction in lipid oxidation level in erastin-induced human HT-1080 cell ferroptosis model assessed as decrease in MDA accumulation at 0.01 to 1 uM; format: functional; settings: dose 0.01-1 µM
[9] = tested on: Calu-1; experiment: Antioxidant activity in erastin-induced human Calu-1 cell ferroptosis model assessed as decrease in lipid ROS accumulation at 0.01 to 1 uM incubated for 8 to 24 hrs by BODIPY 581/591 C11 staining based flow cytometric analysis; format: functional; settings: dose 0.01-1 µM, time 8-24 hrs
[10] = tested on: HT-1080; experiment: Inhibition of H2O2-induced oxidative cell death in human HT-1080 cells at 10 uM incubated for 24 hrs; format: functional, cell-based
[11] = Metal chelating activity assessed as iron chelation
[12] = target: T2, Histone acetyltransferase type B catalytic subunit (Homo sapiens, UniProt O14929); experiment: Inhibition of HAT1 (unknown origin)
T2 sequence (O14929 whole entry): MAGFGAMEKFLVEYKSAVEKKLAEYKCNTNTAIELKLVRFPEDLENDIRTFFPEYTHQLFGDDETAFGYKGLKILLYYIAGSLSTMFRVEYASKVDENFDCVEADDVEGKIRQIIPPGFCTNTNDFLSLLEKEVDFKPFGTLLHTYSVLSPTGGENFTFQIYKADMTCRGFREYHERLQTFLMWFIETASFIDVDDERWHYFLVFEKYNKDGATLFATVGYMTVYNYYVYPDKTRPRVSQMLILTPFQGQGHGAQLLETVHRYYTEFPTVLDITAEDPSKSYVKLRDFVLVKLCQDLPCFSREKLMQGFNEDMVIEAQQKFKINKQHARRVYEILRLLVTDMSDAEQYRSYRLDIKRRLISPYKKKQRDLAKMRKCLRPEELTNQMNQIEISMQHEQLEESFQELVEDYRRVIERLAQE

Muscarinic acetylcholine receptor M3 (Homo sapiens), sequence (P20309 whole entry, looked up): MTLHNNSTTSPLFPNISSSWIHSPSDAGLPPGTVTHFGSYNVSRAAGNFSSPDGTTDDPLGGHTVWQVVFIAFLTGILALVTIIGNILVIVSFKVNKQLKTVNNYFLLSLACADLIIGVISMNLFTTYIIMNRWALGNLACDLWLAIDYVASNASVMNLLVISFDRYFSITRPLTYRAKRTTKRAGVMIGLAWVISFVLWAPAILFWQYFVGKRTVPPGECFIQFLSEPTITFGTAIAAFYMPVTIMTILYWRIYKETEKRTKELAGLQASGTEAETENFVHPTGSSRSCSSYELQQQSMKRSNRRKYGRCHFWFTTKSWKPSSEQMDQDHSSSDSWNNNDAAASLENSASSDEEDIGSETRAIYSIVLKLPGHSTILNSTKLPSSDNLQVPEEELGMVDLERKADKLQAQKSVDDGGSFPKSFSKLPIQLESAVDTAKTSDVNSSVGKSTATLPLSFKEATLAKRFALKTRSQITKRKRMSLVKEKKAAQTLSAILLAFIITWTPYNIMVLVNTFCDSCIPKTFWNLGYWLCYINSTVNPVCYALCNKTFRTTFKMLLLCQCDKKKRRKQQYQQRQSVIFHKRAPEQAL
Histamine H1 receptor (Homo sapiens), sequence (P35367 whole entry): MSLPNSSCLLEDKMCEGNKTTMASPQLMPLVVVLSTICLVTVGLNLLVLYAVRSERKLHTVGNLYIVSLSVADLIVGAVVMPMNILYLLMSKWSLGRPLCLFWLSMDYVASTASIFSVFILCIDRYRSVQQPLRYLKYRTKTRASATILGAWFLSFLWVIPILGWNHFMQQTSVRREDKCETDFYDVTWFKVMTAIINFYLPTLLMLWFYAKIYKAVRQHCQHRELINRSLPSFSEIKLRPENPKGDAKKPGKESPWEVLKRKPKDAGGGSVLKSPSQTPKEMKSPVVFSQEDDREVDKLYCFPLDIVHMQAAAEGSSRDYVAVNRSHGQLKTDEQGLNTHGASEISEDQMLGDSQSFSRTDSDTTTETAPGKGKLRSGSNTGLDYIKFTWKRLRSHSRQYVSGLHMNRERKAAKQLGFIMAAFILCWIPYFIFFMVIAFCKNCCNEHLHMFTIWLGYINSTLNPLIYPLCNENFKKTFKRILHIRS

In the case of `CC(c1ccc(N2CCN(C)CC2)cc1)c1ccc2c(c1)Nc1ccccc1S2` (configuration not stated), the pEC50 [1] was 9.30, the Activity [2] was “inactive” and the pEC50 [3] was 8.53. The pEC50 [4] was 9.37, the Activity [5] was “inactive” and the Activity [6] was “inactive”. For the same molecule, the Activity [7] was “inactive”, the Activity [8] was “Active” and the Activity [9] was “Active”. The Activity [10] was “inactive”, the Activity [11] was “inactive” and the pIC50 [12] was under 5.00.
